Measured values published in ChEMBL document CHEMBL1221268, “Synthesis of a series of novel 2,4,5-trisubstituted selenazole compounds as potential PLTP inhibitors” (Bioorg Med Chem Lett, 2010).

Key:
[1] = target: T1, Cholesteryl ester transfer protein (Homo sapiens, UniProt P11597); experiment: Inhibition of CETP
T1 sequence (P11597 whole entry): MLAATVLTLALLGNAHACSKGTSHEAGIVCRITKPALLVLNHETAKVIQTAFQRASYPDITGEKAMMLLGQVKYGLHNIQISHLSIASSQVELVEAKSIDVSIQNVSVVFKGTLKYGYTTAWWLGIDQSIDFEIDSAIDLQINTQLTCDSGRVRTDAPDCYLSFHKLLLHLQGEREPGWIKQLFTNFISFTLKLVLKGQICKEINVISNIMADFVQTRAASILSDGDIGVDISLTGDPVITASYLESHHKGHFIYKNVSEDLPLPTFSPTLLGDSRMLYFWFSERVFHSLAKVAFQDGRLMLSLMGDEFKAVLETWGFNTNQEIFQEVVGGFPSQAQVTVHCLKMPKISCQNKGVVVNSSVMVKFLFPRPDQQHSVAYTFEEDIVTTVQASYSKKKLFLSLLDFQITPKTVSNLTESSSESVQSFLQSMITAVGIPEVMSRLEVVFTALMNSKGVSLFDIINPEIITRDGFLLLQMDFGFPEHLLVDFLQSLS

[2] = target: Phospholipid transfer protein (Homo sapiens, UniProt P55058); experiment: Inhibition of PLTP
Phospholipid transfer protein, sequence (P55058 whole entry): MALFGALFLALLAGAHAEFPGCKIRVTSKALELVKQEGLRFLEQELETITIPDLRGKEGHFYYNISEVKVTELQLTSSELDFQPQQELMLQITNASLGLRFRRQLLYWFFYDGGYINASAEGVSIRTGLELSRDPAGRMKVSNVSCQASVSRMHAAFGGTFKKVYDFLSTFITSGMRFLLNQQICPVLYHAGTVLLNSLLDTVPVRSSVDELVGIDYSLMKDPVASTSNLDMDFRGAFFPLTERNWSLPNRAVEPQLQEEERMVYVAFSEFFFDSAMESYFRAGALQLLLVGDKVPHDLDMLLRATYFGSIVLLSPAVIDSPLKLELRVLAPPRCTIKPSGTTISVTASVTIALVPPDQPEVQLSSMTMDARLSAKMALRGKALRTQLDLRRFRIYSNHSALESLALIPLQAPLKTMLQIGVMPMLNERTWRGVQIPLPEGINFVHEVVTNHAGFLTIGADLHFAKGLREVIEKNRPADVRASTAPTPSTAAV

## CCc1[se]c(NC(=O)c2cc(O)c(O)c(O)c2)nc1-c1ccc(O)cc1
[1]
  IC50: Not Active
[2]; read-out: IC50
  IC50: 32 µM

## CCc1[se]c(NC(=O)c2ccc(OC)c(OC)c2)nc1-c1ccc(OC)cc1
[1]
  IC50: Not Active
[2]; read-out: IC50
  IC50: 100 µM

## CCc1[se]c(NC(=O)c2ccc(Cl)cc2)nc1-c1ccc(O)cc1
[1]
  IC50: Not Active
[2]; read-out: IC50
  IC50: 60 µM

## CCc1[se]c(NC(=O)c2cc(OC)c(OC)c(OC)c2)nc1-c1ccc(OC)cc1
[1]
  IC50: Not Active
[2]
  IC50: Not Active

## CCc1[se]c(NC(=O)c2ccc(Cl)cc2)nc1-c1ccc(OC)cc1
[1]
  IC50: Not Active
[2]
  IC50: Not Active

## COc1ccc(-c2nc(NC(=O)c3ccc(OC)c(OC)c3)[se]c2Cc2ccccc2)cc1
[1]; read-out: IC50
  IC50: 30 µM
[2]; read-out: IC50
  IC50: 80 µM

## O=C(Nc1nc(-c2ccc(O)cc2)c(Cc2ccccc2)[se]1)c1ccc(O)c(O)c1
[1]
  IC50: Not Active
[2]; read-out: IC50
  IC50: 35 µM

## COc1ccc(-c2nc(NC(=O)c3ccc([N+](=O)[O-])cc3)[se]c2Cc2ccccc2)cc1
[1]
  IC50: Not Active
[2]; read-out: IC50
  IC50: 85 µM

## COc1ccc(-c2nc(NC(=O)c3cc(OC)c(OC)c(OC)c3)[se]c2Cc2ccccc2)cc1
[1]; read-out: IC50
  IC50: 25 µM
[2]
  IC50: Not Active

## O=C(Nc1nc(-c2ccc(O)cc2)c(Cc2ccccc2)[se]1)c1cc(O)c(O)c(O)c1
[1]
  IC50: Not Active
[2]; read-out: IC50
  IC50: 32 µM

## CCCCCC(=O)Nc1nc(-c2ccc(O)cc2)c(Cc2ccccc2)[se]1
[1]; read-out: IC50
  IC50: 25 µM
[2]; read-out: IC50
  IC50: 60 µM

## O=C(Nc1nc(-c2ccccc2)c(-c2ccccc2)[se]1)c1ccc(O)c(O)c1
[1]
  IC50: Not Active
[2]; read-out: IC50
  IC50: 8 µM

## O=C(Nc1nc(-c2ccccc2)c(-c2ccccc2)[se]1)c1cc(O)c(O)c(O)c1
[1]
  IC50: Not Active
[2]; read-out: IC50
  IC50: 25 µM

## O=C(Nc1nc(-c2ccccc2)c(-c2ccccc2)[se]1)c1ccccc1
[1]
  IC50: Not Active
[2]
  IC50: Not Active

## COc1cc(C(=O)Nc2nc(-c3ccccc3)c(-c3ccccc3)[se]2)cc(OC)c1OC
[1]
  IC50: Not Active
[2]
  IC50: Not Active

## O=C(Nc1nc(-c2ccccc2)c(-c2ccccc2)[se]1)c1cc(F)c(F)c(F)c1
[1]
  IC50: Not Active
[2]
  IC50: Not Active

## CCCCc1[se]c(NC(=O)c2cc(O)c(O)c(O)c2)nc1-c1ccc(O)cc1
[1]
  IC50: Not Active
[2]; read-out: IC50
  IC50: 10 µM

## CCCCc1[se]c(NC(C)=O)nc1-c1ccc(O)cc1
[1]
  IC50: Not Active
[2]; read-out: IC50
  IC50: 60 µM

## CCCCc1[se]c(NC(=O)c2ccc(Cl)cc2)nc1-c1ccc(O)cc1
[1]
  IC50: Not Active
[2]; read-out: IC50
  IC50: 60 µM

## CCCCc1[se]c(NC(=O)c2cc(OC)c(OC)c(OC)c2)nc1-c1ccc(OC)cc1
[1]
  IC50: Not Active
[2]; read-out: IC50
  IC50: 150 µM

## CCCCc1[se]c(NC(=O)c2ccc(OC)c(OC)c2)nc1-c1ccc(OC)cc1
[1]
  IC50: Not Active
[2]; read-out: IC50
  IC50: 80 µM
